Laboratory results: PMC6331899, “Soluble Epoxide Hydrolase Inhibitory Activity of Selaginellin Derivatives from Selaginella tamariscina” (Molecules, 2015)

What was measured:
[1] = biological target: T1, Soluble epoxide hydrolases (human recombinant) (Homo sapiens, UniProt P34913); assay: biochemical; conditions: triplicate; for inhibition at 100 µM: PHOME substrate, read-out: Inhibitory Rate at 100 μM (%) sEH; for IC50: PHOME hydrolysis, pH 7.0, 37 °C, read-out: sEH IC50
T1 construct: purchased Cayman (Ann Arbor, MI, USA) 10011669
T1 sequence (P34913 1-555): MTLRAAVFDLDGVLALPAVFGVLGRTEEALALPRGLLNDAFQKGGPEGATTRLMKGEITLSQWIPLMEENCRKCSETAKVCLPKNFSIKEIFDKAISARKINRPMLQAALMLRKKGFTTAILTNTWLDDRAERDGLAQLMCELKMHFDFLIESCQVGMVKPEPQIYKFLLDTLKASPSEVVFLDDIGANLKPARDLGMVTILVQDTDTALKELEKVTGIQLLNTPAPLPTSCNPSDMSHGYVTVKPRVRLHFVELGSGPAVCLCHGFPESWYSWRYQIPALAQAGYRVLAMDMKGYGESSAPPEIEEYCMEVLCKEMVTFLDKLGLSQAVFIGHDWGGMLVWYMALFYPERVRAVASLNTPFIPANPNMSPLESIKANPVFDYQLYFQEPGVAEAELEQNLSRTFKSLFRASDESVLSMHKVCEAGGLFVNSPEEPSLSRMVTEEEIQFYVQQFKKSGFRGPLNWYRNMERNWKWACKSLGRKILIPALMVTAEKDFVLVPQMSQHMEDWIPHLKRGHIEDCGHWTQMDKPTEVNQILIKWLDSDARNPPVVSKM
Description: To evaluate the binding mode between sEH and the inhibitors, a kinetic study was performed using various inhibitors and substrate concentrations.
NMR spectra was obtained on Bruker Advance 600 and 300 MHz (Bruker; Rheinstetten, Germany) spectrometer. Column chromatography was performed using silica gel (Kieselgel 60; 70–230; and 230–400 mesh; Merck; Darmstadt, Germany) and YMC RP-18 resins. Thin layer chromatography (TLC) was performed using pre-coated silica-gel 60 F254 and RP-18 F254S plates (both 0.25 mm; Merck; Darmstadt, Germany). Spots were visualized by spraying with 10% aqueous H2SO4 solution followed by heating. Methanol; acetonitrile (Sigma-Aldrich; St. Louis, MO, USA) and trifluoroacetic acid (Alfa Aesar; Ward Hill, MA, USA) used in this study were of HPLC grade and the distilled water was prepared by the ultra-pure water manufacturing device (Optimos; Sinhan Science Tech, Daejeon, Korea). […] The quantitative analysis for three selaginellins was carried out on Optimapak C18 (250 mm × 4.6 mm I.D.; 5 μm) column.

tyrosinase = assay: Tyrosinase inhibition; type: biochemical; conditions: triplicate
sEH = biological target: T2, sEH (Homo sapiens, UniProt P34913); assay: sEH kinetic analysis (Lineweaver-Burk, secondary plot); type: biochemical; conditions: for sEH inhibition type: Lineweaver-Burk plots; for Ki: secondary re-plot of slope vs [I], Equation (3)
T2 construct: purchased Cayman (Ann Arbor, MI, USA) 10011669
T2 sequence (P34913 1-555): T1 sequence (P34913 1-555)
Description: To evaluate the inhibitory activity of compounds 1–3 on sEH, their hydrolysis effects on the formation of 6-methoxy-2-naphthaldehyde from (3-phenyl-oxiranyl)-acetic acid cyano-(6-methoxy-naphthalen-2-yl)-methyl ester (PHOME) were evaluated by fluorometric determination using an excitation wavelength of 330 nm and emission wavelength of 465 nm. […]. To evaluate the binding mode between sEH and the inhibitors, a kinetic study was performed using various inhibitors and substrate concentrations.
Secondary plots can be constructed from (3) Slope=km/Vmax+Km[I]/VmaxKi

Structure (SMILES) | inhibition at 100 µM [1] | IC50 [1] | Inhibitory Rate at 100 μM (%) Tyrosinase (tyrosinase) | sEH inhibition type (sEH) | Ki (sEH)
O=C1C=CC(=C(c2ccc(O)cc2)c2c(C#Cc3ccc(O)cc3)cccc2-c2ccc(O)cc2)C=C1 [Compound 1, selaginellin A] | 92.5 ± 0.8% | 3.1 ± 0.1 µM | 36.2 ± 2.1% | Noncompetitive | 2900 nM
Cc1ccc(-c2ccc(O)cc2)c(C(=C2C=CC(=O)C=C2)c2ccc(O)cc2)c1C#Cc1ccc(O)cc1 [Compound 2, selaginellin B] | 89.3 ± 2.1% | 8.2 ± 2.2 µM | 32.5 ± 1.5% | Noncompetitive | 6800 nM
O=C1C=CC(=C(c2ccc(O)cc2)c2c(-c3ccc(O)cc3)ccc(CO)c2C#Cc2ccc(O)cc2)C=C1 [Compound 3, selaginellin] | 94.5 ± 5% | 4.2 ± 0.2 µM | 40.1 ± 3.2% | Noncompetitive | 1800 nM
